Patent US20240025966A1, “CD47 BLOCKADE AND COMBINATION THERAPIES THEREOF FOR REDUCTION OF VASCULAR INFLAMMATION” (The Board of Trustees of the Leland Stanford Junior …, priority 2020, published 2024)

How the values were obtained:
CD47 promoter = CD47 promoter luciferase reporter assay; type: cell-based, mouse; conditions: smooth muscle cells, 50 ng/ml TNF-α + 10 μM atorvastatin, 24 hours
Protocol: The luciferase reporter assay was performed as previously described (Kojima et al., Nature 536, 86-90, 2016). CD47 LightSwitch Promoter Reporter GoClones (RenSP, S710450) and Cypridina TK Control constructs (pTK-Cluc, SN0322S) were obtained from SwitchGear Genomics. 45 ng of the RenSP reporter and 5 ng of the pTK-Cluc reporter construct were transfected into mouse smooth muscle cells using Lipofectamine 3000 Transfection 1 Reagent (Thermo Scientific, Catalogue #L3000-008) and Opti-MEM I Reduced Serum Medium (Thermo Scientific, Catalogue #31985062). […] The cell lysate and supernatant were harvested 24 hours after stimulation/treatment und dual luciferase activity was measured with the LightSwitch Luciferase Assay Kit (Active Motif, Catalogue #32031, NC0999256) and Pierce Cypridina Luciferase Glow Assay Kit (Thermo Scientific, P116170) using an iD3 luminometer (Molecular Devices). Relative luciferase activity (RenSP/Cypridina ratio) was quantified as the percentage change relative to the basal value obtained from control-transfected cells.

RAW 264.7 macrophages = assay: Apoptosis assay (Caspase-Glo 3/7); type: cell-based, mouse; conditions: with or without 1 μM staurosporine, 4 hours
Protocol: The apoptosis assay was performed as previously described (Kojima et al., Nature 536, 86-90, 2016). To evaluate apoptosis, the luminometric Caspase-Glo 3/7 Assay System (Promega, Catalogue #G8091) was performed on cultured murine RAW 264.7 macrophages, according to the manufacturer's protocol. Cells were seeded in 96-well plates at the density of 10,000 cells per well, grown at 37° C. and serum-starved for 24 hours. […] For quantification, an iD3 luminometer (Molecular Devices) was used.

CD47 = assay: Cd47 expression by quantitative PCR, flow cytometry and immunofluorescence; type: cell-based, mouse; conditions: smooth muscle cells, 50 ng/ml TNF-α + 10 μM atorvastatin, 48 hours; compared to macrophages
Protocol: RNA was extracted from cell lysates using the miRNeasy Mini Kit (Qiagen, Catalogue #217004) according to the manufacturer's protocol or the TRIzol method (Invitrogen, Catalogue #15596026). Then, RNA was quantified with a NanoDrop One (Thermo Scientific). RNA was reverse transcribed using the High-Capacity RNA-to-cDNA Synthesis Kit (Applied 1 Biosystems, Catalogue #4387406). Quantitative PCR of the cDNA samples was performed on a ViiA7 Real-Time PCR system or a QuantStudio 5 (both Applied Biosystems). Gene expression levels were measured using TaqMan Universal Master Mix II (Applied Biosystems, Catalogue #4440047, Lot #00762728) and commercially available TaqMan primers (Applied Biosystems). Data were quantified with the 2^−ΔΔCt method and normalized to Gapdh as an internal control. […]
Cells were washed, harvested, and stained with an anti-CD47 antibody (BD Life Sciences, Catalogue #561890, FITC, MIAP301, 0.5 mg/ml) or an isotype control antibody (BD Life Sciences, Catalogue #553929, FITC, R35-95, 0.5 mg/ml) after Fc receptor blockade (BD Biosciences, Catalogue #553142, anti-mouse CD16/CD32). Expression was quantified using the LSRII (BD Life Sciences, Stanford Shared FACS Facility) and analysed by FlowJo10.7.1 (BD Life Sciences). […]

humans = assay: Retrospective analysis of 18F-FDG-PET/CT scans of patients treated with magrolimab; type: in vivo, human; conditions: mean±SD, n=9
Protocol: Study population and design. The 13 participants enrolled in the first-in-human clinical trials of magrolimab at Stanford University were identified for inclusion in this retrospective analysis. These patients had refractory or relapsed B-cell lymphoma and had become refractory to rituximab alone or in combination with chemotherapy prior to enrollment. The protocol was reviewed and approved by the institutional review board at Stanford University (IRB #55497). Participants were treated with magrolimab in combination with background rituximab therapy. […]
^18F-FDG-PET/CT scans and analysis. […] Images were anonymized and analyzed using MIM Vista version 6.9.2 (MIM Software Inc., Cleveland, OH). The analyses were performed as previously described, and vascular uptake was quantified in the carotid arteries to avoid confounding by signal present in the mediastinal lymph nodes. Briefly, the carotid artery bifurcations on both sides were identified and arterial FDG uptake was measured starting 2 cm below the carotid artery bifurcation and continuing superiorly to 2 cm into the internal carotid artery. […] The maximum target-to-background ratio (TBR) was calculated (ratio of the maximum SUV of the artery compared to background activity in the ipsilateral internal jugular vein). […] This was calculated as an average maximum TBR derived from four contiguous axial segments. […]

NFκB1 p50 = NFκB1 p50 nuclear translocation by immunofluorescence and Western blot; type: cell-based, mouse; conditions: smooth muscle cells, 10 μM atorvastatin + 100 μM mevalonate
Protocol: Mouse smooth muscle cells were seeded in Millicell EZ Slides 1 (Sigma-Aldrich, Catalogue #PEZGS0416 or Catalogue #PEZGS0816). […] Following stimulation/treatment, cells were rinsed with PBS and fixed with 4% phosphate-buffered paraformaldehyde. For CD47 staining (BioXCell, MIAP410, 25 μg/ml), vector mouse-on-mouse fluorescein Immunodetection Kit (Thermo Scientific, Catalogue #NC9801950) was used according to the manufacturer's instructions. For NFκB1 p105/p50 staining, cells were blocked with 5% goat serum (Sigma-Aldrich, Catalogue #G9023) for 30 minutes, then incubated with NFκB1 p105/p50 (Cell Signaling Technology, Catalogue #13586S, D4P4D, 1:200) overnight at 4° C. […] Images were captured using a Leica DMi8 microscope (equipped with a Leica DMC4500 colour camera and a Leica K5 camera for fluorescence imaging).
Total protein was isolated from mouse smooth muscle cells using a subcellular protein fractionation kit (Thermo Scientific, Catalogue #78840) supplemented with Halt Protease and Phosphatase Inhibitor Cocktail (Thermo Scientific, Catalogue #78442). The protein concentration in each sample was measured using Pierce BCA Protein Assay Kit (Thermo Scientific, Catalogue #23225). […] Membranes were then scanned with an iBright 1500 Imaging System (Thermo Scientific) for quantitative analysis using Image J/FIJI software (Version: 2.0.0/1.52p, NIH).

`CC(C)c1c(C(=O)Nc2ccccc2)c(-c2ccccc2)c(-c2ccc(F)cc2)n1CC[C@@H](O)C[C@@H](O)CC(=O)O` [atorvastatin] was tested, and the “tumor necrosis factor-α induced CD47 promoter activity” value (CD47 promoter) was “inhibit”, the “rate of programmed cell death (apoptosis)” value (RAW 264.7 macrophages) was “not found” and the “CD47 RNA level” value (CD47) was “larger reduction”. The CD47 protein level (CD47) was “larger reduction”.
“magrolimab: humanized anti-CD47 antibody, the first macrophage checkpoint inhibitor” was tested, and the “18F-FDG uptake measured by maximum SUV” value (humans; most diseased segment of the index vessel (carotid) after magrolimab 20 to 45 mg/kg weekly with background rituximab, baseline 2.75±0.58, p=0.01) was 2.09±0.53 and the “18F-FDG uptake measured by maximum TBR” value (humans; most diseased segment of the index vessel (carotid) after magrolimab with background rituximab, baseline 1.56±0.22, p=0.006) was 1.28±0.11.
In the case of `CC(O)(CCOP(=O)(O)O)CC(=O)O` (racemic) [DL-mevalonic acid 5-phosphate], the “effect of atorvastatin on NFκB1 p50 nuclear translocation with the addition of mevalonate” value (NFκB1 p50) is reported as “eliminated”.
